Data on one substance can be found in patent EP0465481B1, “NEW S[…] DERIVATIVES OF TEICOPLANIN” (GRUPPO LEPETIT S.p.A., priority 1989, dated 1990).

In this experiment the test system is Pseudomonas aeruginosa. The experiment is described as follows: MIC, standard two-fold dilution test in microtiter. The settings on record: against Pseudomonas aeruginosa. The format is cell-based. The method, then: Broth cultures are diluted enough so that the final inoculum is about 10^4 colony forming units/ml (CFU/mi).

Substance teicoplanin yielded an MIC of at least 32 microgram/ml.
